Patent publication US20160221974A1, “SODIUM CHANNEL MODULATORS FOR THE TREATMENT OF PAIN AND DIABETES” (CHROMOCELL CORPORATION, priority 2013, published 2016)
Values joined by “and” are separate entries in the source; they are usually repeats but may differ in a detail not shown here. Equal entries are not always repeated.

How the values were obtained:
[1] = target: T1, hNaV1.7 (Homo sapiens, UniProt Q15858); assay: FDSS Membrane Potential In-Vitro Assay; type: cell-based; details: stimulation with veratridine and scorpion venom, read-out: NaV1.7 IC50
T1 construct: expressed in transfected cells

[2] = target: T2, NaV1.5 (Homo sapiens, UniProt Q14524); assay: Patchliner Electrophysiological In-Vitro Assay (NaV1.5); type: cell-based; details: Patchliner patch clamp, HEK293
T2 construct: expressed in transfected cells
Procedure: The recording of sodium current from stable HEK293 cell lines expressing NaV1.7 or NaV1.5 was done on a Patchliner® instrument, Nanion Technologies. The Patchliner® is a fully automated bench-top patch clamp platform and can record simultaneously from up to eight single cells with GΩ seals.
For patch-clamp experiments, cells were grown under standard culturing conditions in Dulbecco's Modified Eagles medium supplemented with 10% fetal bovine serum, glutamine and HEPES. Cells were harvested and kept in suspension for up to 4 hours with no significant change in quality or ability to patch. Whole cell patch clamp recordings were conducted according to Nanion's standard procedure for the Patchliner®. Experiments were conducted at room temperature.
Voltage protocols were designed to establish: 1) peak current amplitude (Imax), 2) test potential (Vmax) and 3) half-inactivation potential (V1/2) for each of the eight individual cells. To determine V1/2, a standard steady-state inactivation protocol was executed using a series of fifteen 500 ms depolarizing pre-pulses in 10 mV increments (starting at −130 mV) and immediately followed by a 10 ms test pulse to Vmax. To estimate test compound affinity to the inactivated state of sodium channel (Ki), the holding potential for each cell was set automatically to the V1/2 calculated from a steady-state inactivation data. The current was activated with the following voltage protocol: holding at V1/2 for 2-5 seconds, return to the −120 mV for 5-10 ms to relieve fast inactivation, stepping to test potential (Vmax) for 10-20 ms. This voltage protocol was repeated every 10 seconds to establish the baseline with 2-3 buffer additions followed by the test compound addition. The dose-dependent inhibition was analyzed using Nanion's Data Analysis Package.

[3] = system: streptozotocin (STZ)-induced diabetic model; assay: Streptozotocin (STZ)-Induced Model of Diabetic Neuropathy, behavioral tests; type: in vivo, male Sprague-Dawley rats; details: 30 mg/kg, measured 30 minutes post dose
Procedure: 250-350 g male Sprague-Dawley rats from appropriate animal resources were used. Type I diabetes was induced by a single injection, (intraperitoneally, intravenously or intramuscularly) of 50-100 mg/kg of streptozotocin (STZ, Sigma Chemicals, St. Louis, Mo. or VWR) freshly dissolved in sodium citrate (0.01 M, pH 4.5). Sham animals were given either saline or same vehicle injection. Following a wait time of about two days, inducement of diabetes was confirmed in STZ-injected rats by measuring the plasma glucose concentrations in blood samples from the tail vein after a fast of 6 hours. […] Other parameters (water intake, food intake, and bodyweight) were monitored before the treatment with a test compound and after the cessation of the treatment.
The analgesic effect of the test compound was expressed as a percent recovery (% Recovery) relative to the sham control group baseline and calculated according to the formula: […]
Rats were placed on the glass surface of a thermal testing apparatus (Model 336, IITC/Life Science Instruments, Woodland Hills, Calif.) and were allowed to acclimate for 10 min before testing on the glass surface at room temperature. […] The paw withdrawal latency was recorded by a digital timer. The thermal threshold was determined as the mean withdrawal latency from two to three consecutive trials of both hindpaws. […]

T1 sequence (Q15858 whole entry): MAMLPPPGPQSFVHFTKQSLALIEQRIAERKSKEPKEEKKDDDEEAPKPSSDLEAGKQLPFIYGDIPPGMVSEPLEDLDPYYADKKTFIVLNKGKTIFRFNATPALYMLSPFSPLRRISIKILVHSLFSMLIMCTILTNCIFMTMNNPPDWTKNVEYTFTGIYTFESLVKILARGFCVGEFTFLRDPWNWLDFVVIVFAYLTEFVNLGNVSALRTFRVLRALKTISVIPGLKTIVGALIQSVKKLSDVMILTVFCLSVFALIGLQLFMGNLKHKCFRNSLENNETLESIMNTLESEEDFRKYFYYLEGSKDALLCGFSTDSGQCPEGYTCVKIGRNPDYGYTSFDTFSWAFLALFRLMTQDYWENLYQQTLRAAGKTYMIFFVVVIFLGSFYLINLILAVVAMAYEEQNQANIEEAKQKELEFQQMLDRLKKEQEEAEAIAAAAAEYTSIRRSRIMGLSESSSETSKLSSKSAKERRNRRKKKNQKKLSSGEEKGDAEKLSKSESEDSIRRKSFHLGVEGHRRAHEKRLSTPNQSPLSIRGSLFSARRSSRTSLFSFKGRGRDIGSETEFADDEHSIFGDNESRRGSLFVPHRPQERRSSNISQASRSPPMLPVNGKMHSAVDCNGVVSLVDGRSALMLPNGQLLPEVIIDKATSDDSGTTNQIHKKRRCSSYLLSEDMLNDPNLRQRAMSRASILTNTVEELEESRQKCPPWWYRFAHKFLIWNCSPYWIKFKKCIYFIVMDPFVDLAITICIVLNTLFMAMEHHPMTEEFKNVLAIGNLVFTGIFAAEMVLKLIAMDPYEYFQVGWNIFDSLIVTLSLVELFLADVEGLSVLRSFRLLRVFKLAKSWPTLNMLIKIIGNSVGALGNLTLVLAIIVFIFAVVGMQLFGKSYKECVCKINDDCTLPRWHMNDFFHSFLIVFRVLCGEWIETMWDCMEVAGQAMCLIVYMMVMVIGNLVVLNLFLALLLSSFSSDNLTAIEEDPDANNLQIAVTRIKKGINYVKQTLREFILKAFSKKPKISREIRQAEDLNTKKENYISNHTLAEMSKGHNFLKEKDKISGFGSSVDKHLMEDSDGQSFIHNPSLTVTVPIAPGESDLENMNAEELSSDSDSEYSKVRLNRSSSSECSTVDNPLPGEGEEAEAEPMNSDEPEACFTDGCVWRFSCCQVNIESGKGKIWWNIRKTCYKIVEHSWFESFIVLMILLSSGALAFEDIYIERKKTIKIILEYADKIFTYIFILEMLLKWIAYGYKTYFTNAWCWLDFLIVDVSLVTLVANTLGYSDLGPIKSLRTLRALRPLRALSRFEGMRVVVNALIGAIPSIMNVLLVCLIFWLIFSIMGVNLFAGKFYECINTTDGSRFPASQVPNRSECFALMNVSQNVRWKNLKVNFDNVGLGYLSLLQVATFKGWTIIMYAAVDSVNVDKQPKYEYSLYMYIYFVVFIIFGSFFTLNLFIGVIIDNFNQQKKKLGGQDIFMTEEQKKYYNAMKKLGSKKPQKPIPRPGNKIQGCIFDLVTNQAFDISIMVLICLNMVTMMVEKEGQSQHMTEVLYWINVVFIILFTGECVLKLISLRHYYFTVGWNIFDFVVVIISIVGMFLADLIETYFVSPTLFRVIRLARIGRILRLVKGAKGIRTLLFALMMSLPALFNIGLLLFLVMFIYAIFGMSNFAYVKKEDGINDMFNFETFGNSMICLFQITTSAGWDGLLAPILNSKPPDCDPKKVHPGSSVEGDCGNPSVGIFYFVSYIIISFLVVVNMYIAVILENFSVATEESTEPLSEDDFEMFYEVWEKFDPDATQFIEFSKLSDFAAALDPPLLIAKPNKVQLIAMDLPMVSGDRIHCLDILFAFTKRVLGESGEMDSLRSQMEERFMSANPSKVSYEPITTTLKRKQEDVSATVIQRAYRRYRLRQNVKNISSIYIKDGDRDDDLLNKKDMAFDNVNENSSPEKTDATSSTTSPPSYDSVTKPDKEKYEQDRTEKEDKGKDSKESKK
T1 sequence (Q07699 19-218 partner): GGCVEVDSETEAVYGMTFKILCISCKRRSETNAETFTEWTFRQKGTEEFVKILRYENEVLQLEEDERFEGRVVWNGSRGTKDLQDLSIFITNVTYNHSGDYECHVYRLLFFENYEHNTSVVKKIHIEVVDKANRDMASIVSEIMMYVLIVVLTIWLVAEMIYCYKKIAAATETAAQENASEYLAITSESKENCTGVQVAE
T1 sequence (O60939 30-215 partner): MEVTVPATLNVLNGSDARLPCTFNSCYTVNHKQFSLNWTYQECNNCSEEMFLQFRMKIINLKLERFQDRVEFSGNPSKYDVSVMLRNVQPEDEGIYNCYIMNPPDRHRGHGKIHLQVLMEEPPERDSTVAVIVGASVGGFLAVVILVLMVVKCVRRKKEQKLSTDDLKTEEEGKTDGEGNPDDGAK
T2 sequence (Q14524 whole entry): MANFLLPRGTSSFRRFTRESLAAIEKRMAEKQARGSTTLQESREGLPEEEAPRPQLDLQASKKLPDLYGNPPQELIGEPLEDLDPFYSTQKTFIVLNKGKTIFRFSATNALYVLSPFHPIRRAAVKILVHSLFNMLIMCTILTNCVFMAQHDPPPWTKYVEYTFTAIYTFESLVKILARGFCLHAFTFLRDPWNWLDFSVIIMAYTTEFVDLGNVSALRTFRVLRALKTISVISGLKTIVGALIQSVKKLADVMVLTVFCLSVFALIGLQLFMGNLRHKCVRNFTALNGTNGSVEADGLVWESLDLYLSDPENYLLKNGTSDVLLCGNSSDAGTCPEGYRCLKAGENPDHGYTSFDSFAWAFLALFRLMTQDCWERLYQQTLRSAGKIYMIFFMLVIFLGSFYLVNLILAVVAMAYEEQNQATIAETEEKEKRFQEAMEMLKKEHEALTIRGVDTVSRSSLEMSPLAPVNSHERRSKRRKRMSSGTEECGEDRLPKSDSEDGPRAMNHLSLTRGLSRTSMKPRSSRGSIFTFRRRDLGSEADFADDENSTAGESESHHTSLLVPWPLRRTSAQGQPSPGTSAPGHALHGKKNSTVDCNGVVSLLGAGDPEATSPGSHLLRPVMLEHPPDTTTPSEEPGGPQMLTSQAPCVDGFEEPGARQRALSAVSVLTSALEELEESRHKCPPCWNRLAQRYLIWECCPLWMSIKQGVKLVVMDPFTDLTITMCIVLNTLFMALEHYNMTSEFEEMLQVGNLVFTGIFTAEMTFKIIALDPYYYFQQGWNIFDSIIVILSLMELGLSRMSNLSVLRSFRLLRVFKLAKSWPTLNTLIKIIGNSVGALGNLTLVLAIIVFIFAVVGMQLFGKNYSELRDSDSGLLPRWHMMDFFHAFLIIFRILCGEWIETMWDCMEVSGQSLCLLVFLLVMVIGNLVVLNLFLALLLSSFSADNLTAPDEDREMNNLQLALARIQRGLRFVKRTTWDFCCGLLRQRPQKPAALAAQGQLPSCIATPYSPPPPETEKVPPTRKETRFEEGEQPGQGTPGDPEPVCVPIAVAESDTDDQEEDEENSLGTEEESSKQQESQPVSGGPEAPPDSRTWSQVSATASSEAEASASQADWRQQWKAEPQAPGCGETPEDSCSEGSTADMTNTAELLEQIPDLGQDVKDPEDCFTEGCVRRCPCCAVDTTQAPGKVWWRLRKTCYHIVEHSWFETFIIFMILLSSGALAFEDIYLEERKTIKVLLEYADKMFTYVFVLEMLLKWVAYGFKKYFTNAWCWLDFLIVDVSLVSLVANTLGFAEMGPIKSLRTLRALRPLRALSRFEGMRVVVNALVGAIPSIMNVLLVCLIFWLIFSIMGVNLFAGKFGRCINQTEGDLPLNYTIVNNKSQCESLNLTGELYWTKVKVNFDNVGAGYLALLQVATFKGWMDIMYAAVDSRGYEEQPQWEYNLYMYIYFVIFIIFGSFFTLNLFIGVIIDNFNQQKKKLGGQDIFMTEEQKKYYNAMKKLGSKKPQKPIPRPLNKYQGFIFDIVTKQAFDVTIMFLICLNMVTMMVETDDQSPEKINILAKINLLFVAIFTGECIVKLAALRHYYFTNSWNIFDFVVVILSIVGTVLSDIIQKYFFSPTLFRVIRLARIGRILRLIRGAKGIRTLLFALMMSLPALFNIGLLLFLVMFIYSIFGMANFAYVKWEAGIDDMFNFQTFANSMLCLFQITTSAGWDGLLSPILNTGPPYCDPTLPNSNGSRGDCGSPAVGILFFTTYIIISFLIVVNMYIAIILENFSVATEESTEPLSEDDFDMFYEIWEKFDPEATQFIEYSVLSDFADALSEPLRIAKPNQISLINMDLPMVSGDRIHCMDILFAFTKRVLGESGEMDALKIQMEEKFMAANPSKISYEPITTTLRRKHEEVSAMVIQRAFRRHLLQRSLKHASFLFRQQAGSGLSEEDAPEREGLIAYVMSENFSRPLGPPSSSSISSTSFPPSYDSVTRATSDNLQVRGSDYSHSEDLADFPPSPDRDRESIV

NC(=O)CNCCCc1cc(Cl)ccc1Oc1cc(F)c(S(=O)(=O)Nc2cscn2)cc1Cl [Compound 49, 2-((3-(5-chloro-2-(2-chloro-5-fluoro-4-(N-(thiazol-4-yl)sulfamoyl)phenoxy)phenyl)propyl)amino)acetamide]
IC50 [1]: 100 to 500 nM and 500 to 1000 nM | IC50 [2]: > 10000 nM | effect in the tactile allodynia test [3]: no significant effect
